According to EP3355943B1, “METHODS AND SYSTEMS FOR TREATING MEDICAL DEVICES AND FLUIDS” (Ethicon, Inc., priority 2015, dated 2017):

Key:
[1] = Suture testing in ethanol, cyclohexane, isopropanol with 1% calcium stearate; assay type: biochemical; details: for Change in Endotoxin Level (%): vs. Suture-1 not submerged (68.1 EU)
Description: Similarly to the testing above, an absorbable suture of the same type, similarly contaminated, was exposed to CaSt in three solvents (ethanol, cyclohexane, isopropanol). The suture was then tested for LPS.
Sutures used were 27 inch long pieces of absorbable lactide-glycolide sutures. […] 7 strands of suture were placed in tubing with endotoxin solution for 10 minutes at a time. The sutures were dried for 20 minutes and then placed in round bottom tubes. […] 1 suture was placed in each tube and vortexed in this solution for approximately 10 seconds. The sutures were removed and allowed to dry for 20 minutes and then placed in round bottom tubes. This was done for 6 sutures. 1 piece of suture, serving as the control, was not submerged in any solutions and placed in test tubes. 3 mL of LAL reagent water was added to each test tube, vortexed vigorously, and then placed in a hot water bath at 37°C for 1 hour. They were then removed, vortexed vigorously, diluted, and tested on the MCS system. […] Results of testing in ethanol, cyclohexane, isopropanol

[2] = Effect of storage (dwell time) on efficacy of pre-mixed CaSt suspensions, sonicated or vortexed; assay type: biochemical
Description: Efficacy of pre-mixed CaSt suspensions (sonicated and vortexed) was tested, comparing efficacy of immediately prepared suspensions with suspensions having shelf life or dwell time of 90 min, 5 days, and 1 month prior to contact with endotoxin containing solutions.
10 mL SRW was then introduced to the sonicated CaSt mixture. It was then vortexed for 5 seconds to fully incorporate the sonicated CaSt. The mixture was then tested after 15 minutes of interaction to measure the percent decrease of endotoxin.
10 mL SRW was then introduced to the vortexed CaSt mixture. It was then vortexed for 5 seconds to fully incorporate the sonicated CaSt. The mixture was then tested after 15 minutes of interaction to measure the percent decrease of endotoxin.
These mixtures were then tested on the Charles River MCS at a dilution of 1:2000 after 15 minutes of interaction.
Testing of suspensions having shelf life or dwell time of 90 min, 5 days, and 1 month prior to contact with endotoxin containing solutions.
Test samples were prepared as described above, sonicated and vortexed, but were subjected to shelf life or dwell time of 90 min, 5 days, and 1 month prior to contact with endotoxin containing solution (SRW). After dwell time exposure, similarly to the immediate mixing test above, 10 mL SRW was then introduced to the sonicated or vortexed CaSt mixture. It was then vortexed for 5 seconds to fully incorporate the sonicated CaSt. The mixture was then tested after 15 minutes of interaction to measure the percent decrease of endotoxin. These mixtures were then tested on the Charles River MCS at a dilution of 1:2000 after 15 minutes of interaction.
*The 1 month shelf life sample was only tested at 0.04g CaSt and measured the percent removal after 15 minutes of interaction as well as 30 minutes after interaction.

[3] = suture submerged in Cyclohexane w/1% Calcium Stearate (0.0858 g)
[4] = suture submerged in Ethanol w/1% Calcium Stearate (0.0827 g)
[5] = suture submerged in Isopropanol w/1% Calcium Stearate (0.0841 g)
[6] = 0.02 g CaSt, Sonicated, 5 Day dwell time

Structure (SMILES): CCCCCCCCCCCCCCCCCC(=O)O [Calcium Stearate]
- LPS activity decreased by ([1]; CaSt 1% suspension in ethanol, cyclohexane, isopropanol): 75-95%
- Endotoxin Detected (EU) [1, 3]: 4.02 EU
- Change in Endotoxin Level (%) [1, 3]: -94.1%
- Endotoxin Detected (EU) [1, 4]: 15.06 EU
- Change in Endotoxin Level (%) [1, 4]: -77.9%
- Endotoxin Detected (EU) [1, 5]: 16.59 EU
- Change in Endotoxin Level (%) [1, 5]: -75.6%
- Average Percent Change [2, 6]: 76%
- Percent Endotoxin Removed [2, 6]: 76%
- EU After ([2]; 0.02 g CaSt, Sonicated, 5 Day dwell time, 15 minutes, EU Before 37,800): 9,200 EU
- Average Percent Change ([2]; 0.02 g CaSt, Sonicated, 90 min dwell time): 61%
- EU After ([2]; 0.02 g CaSt, Sonicated, 90 min dwell time, 15 minutes, EU Before 36,100, listed as Aged Sonicated CaSt #1): 15120 EU
- EU After ([2]; 0.02 g CaSt, Sonicated, 90 min dwell time, 15 minutes, EU Before 36,100, listed as Aged Sonicated CaSt #2): 12,960 EU
- Percent Endotoxin Removed ([2]; 0.02 g CaSt, Sonicated, 90 min dwell time, listed as Aged Sonicated CaSt #1): 58%
- Percent Endotoxin Removed ([2]; 0.02 g CaSt, Sonicated, 90 min dwell time, listed as Aged Sonicated CaSt #2): 64%
- Average Percent Change ([2]; 0.02 g CaSt, Sonicated, Immediate Mixing): 74%
- EU After ([2]; 0.02 g CaSt, Sonicated, Immediate Mixing, 15 minutes, EU Before 36,100, listed as Sonicated CaSt #1): 8,960 EU
- EU After ([2]; 0.02 g CaSt, Sonicated, Immediate Mixing, 15 minutes, EU Before 36,100, listed as Sonicated CaSt #2): 10,240 EU
- Percent Endotoxin Removed ([2]; 0.02 g CaSt, Sonicated, Immediate Mixing, listed as Sonicated CaSt #1): 75%
- Percent Endotoxin Removed ([2]; 0.02 g CaSt, Sonicated, Immediate Mixing, listed as Sonicated CaSt #2): 72%
- Average Percent Change ([2]; 0.02 g CaSt, Vortexed, 5 Day dwell time): 64%
- EU After ([2]; 0.02 g CaSt, Vortexed, 5 Day dwell time, 15 minutes, EU Before 37,800, listed as Aged Vortexed CaSt #3): 15,120 EU
- EU After ([2]; 0.02 g CaSt, Vortexed, 5 Day dwell time, 15 minutes, EU Before 37,800, listed as Aged Vortexed CaSt #4): 12,160 EU
- Percent Endotoxin Removed ([2]; 0.02 g CaSt, Vortexed, 5 Day dwell time, listed as Aged Vortexed CaSt #3): 60%
- Percent Endotoxin Removed ([2]; 0.02 g CaSt, Vortexed, 5 Day dwell time, listed as Aged Vortexed CaSt #4): 68%
- Average Percent Change ([2]; 0.02 g CaSt, Vortexed, 90 min dwell time): 43%
- EU After ([2]; 0.02 g CaSt, Vortexed, 90 min dwell time, 15 minutes, EU Before 36,100, listed as Aged Vortexed CaSt #1): 22,400 EU
- EU After ([2]; 0.02 g CaSt, Vortexed, 90 min dwell time, 15 minutes, EU Before 36,100, listed as Aged Vortexed CaSt #2): 19280 EU
- Percent Endotoxin Removed ([2]; 0.02 g CaSt, Vortexed, 90 min dwell time, listed as Aged Vortexed CaSt #1): 38%
- Percent Endotoxin Removed ([2]; 0.02 g CaSt, Vortexed, 90 min dwell time, listed as Aged Vortexed CaSt #2): 47%
- Average Percent Change ([2]; 0.02 g CaSt, Vortexed, Immediate Mixing): 32%
- EU After ([2]; 0.02 g CaSt, Vortexed, Immediate Mixing, 15 minutes, EU Before 36,100, listed as Aged Vortexed CaSt #1): 29,200 EU
- EU After ([2]; 0.02 g CaSt, Vortexed, Immediate Mixing, 15 minutes, EU Before 36,100, listed as Aged Vortexed CaSt #2): 20,480 EU
- Percent Endotoxin Removed ([2]; 0.02 g CaSt, Vortexed, Immediate Mixing, listed as Aged Vortexed CaSt #1): 20%
- Percent Endotoxin Removed ([2]; 0.02 g CaSt, Vortexed, Immediate Mixing, listed as Aged Vortexed CaSt #2): 43%
- EU After ([2]; 0.04 g CaSt, Sonicated, Immediate Mixing with 10 mL SRW, 15 minutes, EU Before 36,100, listed as Sonicated CaSt #1): 5,320 EU
- EU After ([2]; 0.04 g CaSt, Sonicated, Immediate Mixing with 10 mL SRW, 15 minutes, EU Before 36,100, listed as Sonicated CaSt #2): 5,800 EU
- Average Percent Change ([2]; 0.04 g CaSt, Sonicated, Immediate Mixing, 15 minutes): 85%
- Percent Endotoxin Removed ([2]; 0.04 g CaSt, Sonicated, Immediate Mixing, 15 minutes, listed as Sonicated CaSt #1): 85%
- Percent Endotoxin Removed ([2]; 0.04 g CaSt, Sonicated, Immediate Mixing, 15 minutes, listed as Sonicated CaSt #2): 84%
- Average Percent Change ([2]; 0.04 g CaSt, Sonicated, Mixing after 1 Month dwell time): 50%
- EU After ([2]; 0.04 g CaSt, Sonicated, Mixing after 1 Month dwell time, 15 minutes, EU Before 14650, listed as Aged Sonicated CaSt #1): 7440 EU
- EU After ([2]; 0.04 g CaSt, Sonicated, Mixing after 1 Month dwell time, 15 minutes, EU Before 14650, listed as Aged Sonicated CaSt #2): 7240 EU
- Percent Endotoxin Removed ([2]; 0.04 g CaSt, Sonicated, Mixing after 1 Month dwell time, listed as Aged Sonicated CaSt #1): 49.2%
- Percent Endotoxin Removed ([2]; 0.04 g CaSt, Sonicated, Mixing after 1 Month dwell time, listed as Aged Sonicated CaSt #2): 50.6%
- Average Percent Change ([2]; 0.04 g CaSt, Sonicated, Mixing after 5 Days dwell time): 85%
- EU After ([2]; 0.04 g CaSt, Sonicated, Mixing after 5 Days dwell time, 15 minutes, EU Before 37,800, listed as Aged Sonicated CaSt #3): 5,040 EU
- EU After ([2]; 0.04 g CaSt, Sonicated, Mixing after 5 Days dwell time, 15 minutes, EU Before 37,800, listed as Aged Sonicated CaSt #4): 6,560 EU
- Percent Endotoxin Removed ([2]; 0.04 g CaSt, Sonicated, Mixing after 5 Days dwell time, listed as Aged Sonicated CaSt #3): 87%
- Percent Endotoxin Removed ([2]; 0.04 g CaSt, Sonicated, Mixing after 5 Days dwell time, listed as Aged Sonicated CaSt #4): 83%
- Average Percent Change ([2]; 0.04 g CaSt, Sonicated, Mixing after 90 min dwell time): 81%
- EU After ([2]; 0.04 g CaSt, Sonicated, Mixing after 90 min dwell time, 15 minutes, EU Before 36,100, listed as Aged Sonicated CaSt #1): 6168 EU
- EU After ([2]; 0.04 g CaSt, Sonicated, Mixing after 90 min dwell time, 15 minutes, EU Before 36,100, listed as Aged Sonicated CaSt #2): 8,000 EU
- Percent Endotoxin Removed ([2]; 0.04 g CaSt, Sonicated, Mixing after 90 min dwell time, listed as Aged Sonicated CaSt #1): 83%
- Percent Endotoxin Removed ([2]; 0.04 g CaSt, Sonicated, Mixing after 90 min dwell time, listed as Aged Sonicated CaSt #2): 78%
- Average Percent Change ([2]; 0.04 g CaSt, Vortexed, Immediate Mixing): 44%
- EU After ([2]; 0.04 g CaSt, Vortexed, Immediate Mixing, 15 minutes, EU Before 36,100, listed as Aged Vortexed CaSt #1): 19,840 EU
- EU After ([2]; 0.04 g CaSt, Vortexed, Immediate Mixing, 15 minutes, EU Before 36,100, listed as Aged Vortexed CaSt #2): 20480 EU
- Percent Endotoxin Removed ([2]; 0.04 g CaSt, Vortexed, Immediate Mixing, listed as Aged Vortexed CaSt #1): 45%
- Percent Endotoxin Removed ([2]; 0.04 g CaSt, Vortexed, Immediate Mixing, listed as Aged Vortexed CaSt #2): 43%
- Average Percent Change ([2]; 0.04 g CaSt, Vortexed, Mixing after 5 Days dwell time): 75%
- EU After ([2]; 0.04 g CaSt, Vortexed, Mixing after 5 Days dwell time, 15 minutes, EU Before 37,800, listed as Aged Vortexed CaSt #3): 9,080 EU
- EU After ([2]; 0.04 g CaSt, Vortexed, Mixing after 5 Days dwell time, 15 minutes, EU Before 37,800, listed as Aged Vortexed CaSt #4): 9,760 EU
- Percent Endotoxin Removed ([2]; 0.04 g CaSt, Vortexed, Mixing after 5 Days dwell time, listed as Aged Vortexed CaSt #3): 76%
- Percent Endotoxin Removed ([2]; 0.04 g CaSt, Vortexed, Mixing after 5 Days dwell time, listed as Aged Vortexed CaSt #4): 74%
- Average Percent Change ([2]; 0.04 g CaSt, Vortexed, Mixing after 90 min dwell time): 54%
- EU After ([2]; 0.04 g CaSt, Vortexed, Mixing after 90 min dwell time, 15 minutes, EU Before 36,100, listed as Aged Vortexed CaSt #1): 17,120 EU
- EU After ([2]; 0.04 g CaSt, Vortexed, Mixing after 90 min dwell time, 15 minutes, EU Before 36,100, listed as Aged Vortexed CaSt #2): 16,460 EU
- Percent Endotoxin Removed ([2]; 0.04 g CaSt, Vortexed, Mixing after 90 min dwell time, listed as Aged Vortexed CaSt #1): 53%
- Percent Endotoxin Removed ([2]; 0.04 g CaSt, Vortexed, Mixing after 90 min dwell time, listed as Aged Vortexed CaSt #2): 54%
